Test results reported in ChEMBL document CHEMBL1133826, “Design, synthesis, and biological activity of diiminoisoindolines as complement component 3a antagonists” (Bioorg Med Chem Lett, 2001).
One block for each compound: values may come before it.

Experiments:
[1] = target: T1, C3a anaphylatoxin chemotactic receptor (Homo sapiens, UniProt Q16581); test: Inhibition of complement component 3a (C3a) binding to C3a receptor in human neutrophil based assay
T1 sequence (Q16581 whole entry): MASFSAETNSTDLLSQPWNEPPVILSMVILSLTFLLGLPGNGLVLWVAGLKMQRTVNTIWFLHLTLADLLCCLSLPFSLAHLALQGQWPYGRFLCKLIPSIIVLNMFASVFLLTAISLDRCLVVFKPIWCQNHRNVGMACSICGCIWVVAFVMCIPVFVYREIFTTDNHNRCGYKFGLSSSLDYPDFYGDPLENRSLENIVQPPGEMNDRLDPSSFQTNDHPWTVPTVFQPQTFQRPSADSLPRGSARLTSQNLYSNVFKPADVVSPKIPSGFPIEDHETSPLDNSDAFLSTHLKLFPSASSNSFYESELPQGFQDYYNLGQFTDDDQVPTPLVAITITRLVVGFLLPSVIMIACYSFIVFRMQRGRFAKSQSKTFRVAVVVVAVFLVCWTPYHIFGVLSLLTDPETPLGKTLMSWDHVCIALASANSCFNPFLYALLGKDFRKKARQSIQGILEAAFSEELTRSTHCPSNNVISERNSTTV

Homo sapiens [2] = species on record: Homo sapiens; test: Concentration required for 50% inhibition of binding against C3a receptor induced calcium mobilization in human neutrophil; format: functional, organism-based
Homo sapiens [3] = species on record: Homo sapiens; test: Percent inhibition against C3a receptor induced chemotaxis in human eosinophils at the dose of 25 uM; format: functional
[4] = target: T1, C3a anaphylatoxin chemotactic receptor; test: Concentration required to inhibit complement component 3a (C3a) binding to C3a receptor in human neutrophil based assay; Not active at 25 uM
Rattus norvegicus [5] = test: Percent inhibition against C3a receptor induced wheal formation in rat at the dose of 30 mg/Kg administered intraperitoneally
Rattus norvegicus [6] = test: Percent inhibition against C3a receptor induced wheal formation in rat at the dose of 15 mg/Kg administered orally
Rattus norvegicus [7] = test: Percent inhibition against C3a receptor induced wheal formation in rat at the dose of 30 mg/Kg administered orally
Homo sapiens [8] = species on record: Homo sapiens; test: Percent inhibition against C3a receptor induced calcium mobilization in human neutrophil at the dose of 25 uM; format: functional
Homo sapiens [9] = species on record: Homo sapiens; test: Inhibitory concentration against C3a receptor induced chemotaxis in human eosinophils; format: functional, organism-based
Homo sapiens [10] = species on record: Homo sapiens; test: Inhibitory concentration against C3a receptor induced chemotaxis in human eosinophils; Not active at 25 uM; format: functional, organism-based

IC50 (Homo sapiens [2]): 3.8 µM
Compound: COc1ccc2c(c1)/C(=N/CCc1ccc(C)cc1)N=C2NCCc1ccc(C)cc1
IC50 [1]: 12.6 µM | inhibition at 25 µM (Homo sapiens [3]): 37%

Compound: Cc1ccc(CC/N=C2/CCC(NCCc3ccc(C)cc3)=N2)cc1
IC50 [4]: Not Active

Compound: N=C1N=C(NCCc2ccc(Cl)cc2)c2ccccc21
IC50 [4]: Not Active

Compound: Fc1ccc(CC/N=C2\N=C(NCCc3ccc(F)cc3)c3nccnc32)cc1
IC50 [4]: Not Active

IC50 (Homo sapiens [2]): 2 µM | inhibition (Rattus norvegicus [5]): 64% | inhibition (Rattus norvegicus [6]): 30% | inhibition (Rattus norvegicus [7]): 61%
Compound: Cc1ccc(C/N=C2\N=C(NCc3ccc(C)cc3)c3ccccc32)cc1
IC50 [1]: 1.7 µM

Compound: CC(C/N=C1\N=C(NCC(C)c2ccc(Cl)cc2)c2ccccc21)c1ccc(Cl)cc1 (stereo unspecified)
IC50 [1]: 5.9 µM | inhibition at 25 µM (Homo sapiens [8]): 69%

IC50 (Homo sapiens [9]): 7.8 µM
Compound: CN(C)CCOc1ccc2c(c1)/C(=N/CCc1ccc(F)cc1)N=C2NCCc1ccc(F)cc1
IC50 [1]: 5.36 µM

IC50 (Homo sapiens [2]): 3.1 µM | IC50 (Homo sapiens [9]): 6.5 µM | inhibition (Rattus norvegicus [5]): 73% | inhibition (Rattus norvegicus [6]): 44% | inhibition (Rattus norvegicus [7]): 72%
Compound: Fc1ccc(CC/N=C2\N=C(NCCc3ccc(F)cc3)c3ccccc32)cc1
IC50 [1]: 11.4 µM

IC50 (Homo sapiens [2]): 8.2 µM | IC50 (Homo sapiens [9]): 10.2 µM | inhibition (Rattus norvegicus [5]): 26% | inhibition (Rattus norvegicus [7]): 63%
Compound: Clc1ccc(CC/N=C2\N=C(NCCc3ccc(Cl)cc3)c3ccccc32)cc1
IC50 [1]: 7.16 µM

IC50 (Homo sapiens [9]): 6.1 µM
Compound: CCCOc1ccc2c(c1)/C(=N/CCc1ccc(F)cc1)N=C2NCCc1ccc(F)cc1
IC50 [1]: 5.97 µM | inhibition at 25 µM (Homo sapiens [8]): 79%

Compound: Fc1ccc(CC/N=C2\N=C(NCCc3ccc(F)cc3)c3cnccc32)cc1
IC50 [1]: 13.4 µM

IC50 (Homo sapiens [2]): 3.3 µM | IC50 (Homo sapiens [9]): 6.5 µM | inhibition (Rattus norvegicus [5]): 38% | inhibition (Rattus norvegicus [7]): 67%
Compound: Cc1ccc(CC/N=C2\N=C(NCCc3ccc(C)cc3)c3ccccc32)cc1
IC50 [1]: 6.14 µM

Compound: Cc1ccc(CC/N=C2\N=C(NCCc3ccc(C)cc3)c3cc(Cl)c(Cl)cc32)cc1
IC50 [1]: 48 µM

Compound: Cc1ccc(C/N=C2\N=C(NCc3ccc(C)cc3)c3cc([N+](=O)[O-])ccc32)cc1
IC50 [4]: Not Active

Compound: CC(=O)Nc1ccc2c(c1)/C(=N\Cc1ccc(C)cc1)N=C2NCc1ccc(C)cc1
IC50 [1]: 32 µM

IC50 (Homo sapiens [10]): Not Active | IC50 (Homo sapiens [2]): 5.4 µM | inhibition (Rattus norvegicus [5]): 72% | inhibition (Rattus norvegicus [6]): 28% | inhibition (Rattus norvegicus [7]): 55%
Compound: Clc1cccc(CC/N=C2\N=C(NCCc3cccc(Cl)c3)c3ccccc32)c1
IC50 [1]: 7.48 µM

Compound: CC(C)NC1=N/C(=N\CCc2ccc(Cl)cc2)c2ccccc21
IC50 [1]: 8.45 µM

Compound: CC(C)/N=C1\N=C(NC(C)C)c2ccccc21
IC50 [4]: Not Active
